Measured values: patent US9528092B2, “Methods of efficiently establishing induced pluripotent stem cells under hypoxic conditions” (Kyoto University, priority 2008, dated 2016)

Tested on: four-factor transduced MEFs
Assay: Flow cytometric analysis of Nanog-GFP-positive cells on day 9 posttransduction
Format: cell-based, mouse
Details: day 5 to day 9 posttransduction, flow cytometry on day 9, four factors alone 0.01%
Method: Mice having a Nanog reporter were used as an experimental system. The Nanog reporter used was prepared by inserting the enhanced green fluorescent protein (EGFP) and puromycin resistant genes into the Nanog locus of a BAC (bacterial artificial chromosome) purchased from BACPAC Resources [Okita K. et al., Nature 448, 313-317 (2007)]. The mouse Nanog gene is expressed specifically in pluripotent cells such as ES cells and early embryos. The mouse iPS cells that have become positive for this reporter are known to be nearly equivalent to ES cells in terms of differentiation potential. Mouse embryonic fibroblasts (MEFs) and tail-tip fibroblasts (TTFs) obtained from a Nanog reporter mouse having this Nanog reporter [Okita K. et al., Nature 448, 313-317 (2007)] were transfected by means of retroviruses to establish iPS cells, and colonies expressing EGFP from the Nanog reporter were counted to evaluate the efficiency of establishment of iPS cells.
To investigate whether GFP-positive cells were detected earlier or not, the four-factor transduced MEFs were cultivated under 20% oxygen or under 5% oxygen with or without 2 mM valproic acid (VPA) from day 5 to day 9 posttransduction, and were subjected to flow cytometric analysis on day 9. Retroviral expression of four factors induced 0.01% of the cells to become GFP-positive on day 9 posttransduction. […]

## CCCC(CCC)C(=O)O [VPA, valproic acid]
2 mM VPA, 20% oxygen
  percentage of GFP-positive cells: 0.48%
co-treatment with hypoxia (5% oxygen) and 2 mM VPA
  percentage of GFP-positive cells: 2.28%
